Laboratory results from patent US11298344B2, “Composition for inhibiting sodium leak channel (NALCN), comprising n-benzhydryl quinuclidine derivatives” (Research & Business Foundation Sungkyunkwan University, priority 2018, dated 2022).

How the values were obtained:
Type in all cases: cell-based
[1] = target: T1, NALCN (Rattus norvegicus, UniProt Q6Q760); test: Patch-clamp of HEK293T cells transfected with M3R and NALCN, CCh-induced inward current; details: for compound concentration which decreases half of a NALCN current (rank order): CCh-induced current; for inhibitory effect on a CCh-induced NALCN current: FIG. 6; for activation of NALCN by CCh in the presence of the compound: compound present before CCh
T1 construct: expressed in transfected cells; host or cells: HEK293T
Method: (§1) HEK293T cells were cultured in a DMEM ([…]) medium containing 10% FBS and 1% antibiotics using an incubator having a condition of 37° C. and 5% CO2. NALCN and TRPC cDNAs were respectively constructed using a vector that expresses GFP under an independent promoter. Lipofectamine 2000, which is used as a transfection reagent, was mixed with each plasmid and the cells were treated with the mixture. Then, after 48 hours, expression was identified. In order to identify whether normal transfection with each plasmid occurred, only the cells in which GFP was expressed were selected.
(§2) The HEK293T cells were transfected with combinations of M3R and NALCN, M3R and GFP, and M3R and TRPCs.
Among the transfected HEK293T cells acquired in Experimental Method 2, cells expressing GFP were selected, and a patch pipette formed of a thin glass tube was inserted into a membrane surface. After setting −80 mV as a holding potential, a current was measured. Under the holding potential, treatment with carbachol (CCh) which is an activator of M3R was performed to identify a current induced by NALCN. An extracellular solution was treated with 50 μM of L703606, and change of current caused by CCh was identified. In addition, based on voltage-independent characteristics of NALCN, currents obtained by varying the voltage from −80 mV to +10 mV were measured, and change of current caused by the treatment with L703606 was recorded. All data were presented as mean±standard deviation calculated after treatment with an inhibitor relative to a control (** P<0.01).
HEK293T cells are non-neuronal cells commonly used for transfection of genes. Based on the report that a NALCN channel is activated by M3R in pancreatic beta cells MIN6 and HEK293 cells, M3R and NALCN plasmids that had been cloned from rat brain were co-transfected into HEK293T cells to identify whether L703606 inhibits a NALCN current activated by M3R.

[2] = target: T2, NALCN (Mus musculus, UniProt Q8BXR5); test: Patch-clamp of isolated midbrain dopaminergic neurons (background and NT-induced currents, membrane voltage)
T2 construct: from tissue; host or cells: acutely isolated dopaminergic neurons of mouse substantia nigra pars compacta (TH-GFP mice)
Method: In order to obtain midbrain dopaminergic neurons from mice, substantia nigra pars compacta within mouse midbrain in which GFP was expressed due to tyrosine hydroxylase (TH) promoter was cut into sections. In order to isolate tissue, the sections were subjected to treatment with a highly-concentrated glucose solution at 36.5° C. which contains papain (4 U ml-1) for 20 minutes or longer. The enzymatically-treated sections of substantia nigra pars compacta were washed with a highly-concentrated glucose solution, and then slowly agitated using Pasteur pipettes with various size holes so that the respective dopaminergic neurons were isolated. All animal experiments were conducted under approval of the Institutional Animal Care and Use Committee (IACUC) of Sungkyunkwan University School of Medicine.
Among the dopaminergic neurons isolated in Experimental Method 1, dopaminergic neurons expressing GFP were selected, and a patch pipette formed of thin glass tube was inserted into a membrane surface. After setting −60 mV as a holding potential, a current was measured. A background current was identified under the holding voltage. After treatment with NT, a current was identified. Then, additionally, an extracellular solution was treated with 10 μM of L703606, and change of current was identified. In addition, the above procedure was repeated by replacing sodium ion with N-methyl-D-glucamine (NMDG). After treating the extracellular solution with 0.5 μM of tetrodotoxin (TTX) and 30 μM of ZD7288 which are a voltage-gated sodium channel inhibitor and an HCN channel inhibitor, respectively, a voltage was measured. Additionally, change of voltage at the time of treatment with 10 μM of L703606 was identified. All data were presented as mean±standard deviation calculated at the time of treatment with the inhibitors and replacement of sodium ion, relative to a control. (* P<0.05, ** P<0.01, *** P<0.001).
In addition, it was possible to identify that at the time of replacing sodium with NMDG, the background current was close to 0 pA, and an inward current was not induced by the treatment with NT. From this, it can be seen that the background current is generated by sodium ions.

[3] = test system: transient receptor potential canonical (TRPC) 3, 4, 5, 6, or 7 channel; test: Patch-clamp of HEK293T cells transfected with M3R and a TRPC channel, CCh-induced inward current; details: holding potential −60 mV, second CCh stimulus, Na+ and K+ removed, cesium added
Method: as §1, §2
From the above, it was possible to identify NALCN inhibitory effects of the NBQN derivatives. Furthermore, in the present example, it was intended to identify whether the NBQN derivatives have specific and exclusive inhibitory activity against NALCN. […]

[4] = holding potential −60 mV, 10 μM of L703606
[5] = holding potential −60 mV, 20 μM of PP1

T1 sequence (Q6Q760 whole entry): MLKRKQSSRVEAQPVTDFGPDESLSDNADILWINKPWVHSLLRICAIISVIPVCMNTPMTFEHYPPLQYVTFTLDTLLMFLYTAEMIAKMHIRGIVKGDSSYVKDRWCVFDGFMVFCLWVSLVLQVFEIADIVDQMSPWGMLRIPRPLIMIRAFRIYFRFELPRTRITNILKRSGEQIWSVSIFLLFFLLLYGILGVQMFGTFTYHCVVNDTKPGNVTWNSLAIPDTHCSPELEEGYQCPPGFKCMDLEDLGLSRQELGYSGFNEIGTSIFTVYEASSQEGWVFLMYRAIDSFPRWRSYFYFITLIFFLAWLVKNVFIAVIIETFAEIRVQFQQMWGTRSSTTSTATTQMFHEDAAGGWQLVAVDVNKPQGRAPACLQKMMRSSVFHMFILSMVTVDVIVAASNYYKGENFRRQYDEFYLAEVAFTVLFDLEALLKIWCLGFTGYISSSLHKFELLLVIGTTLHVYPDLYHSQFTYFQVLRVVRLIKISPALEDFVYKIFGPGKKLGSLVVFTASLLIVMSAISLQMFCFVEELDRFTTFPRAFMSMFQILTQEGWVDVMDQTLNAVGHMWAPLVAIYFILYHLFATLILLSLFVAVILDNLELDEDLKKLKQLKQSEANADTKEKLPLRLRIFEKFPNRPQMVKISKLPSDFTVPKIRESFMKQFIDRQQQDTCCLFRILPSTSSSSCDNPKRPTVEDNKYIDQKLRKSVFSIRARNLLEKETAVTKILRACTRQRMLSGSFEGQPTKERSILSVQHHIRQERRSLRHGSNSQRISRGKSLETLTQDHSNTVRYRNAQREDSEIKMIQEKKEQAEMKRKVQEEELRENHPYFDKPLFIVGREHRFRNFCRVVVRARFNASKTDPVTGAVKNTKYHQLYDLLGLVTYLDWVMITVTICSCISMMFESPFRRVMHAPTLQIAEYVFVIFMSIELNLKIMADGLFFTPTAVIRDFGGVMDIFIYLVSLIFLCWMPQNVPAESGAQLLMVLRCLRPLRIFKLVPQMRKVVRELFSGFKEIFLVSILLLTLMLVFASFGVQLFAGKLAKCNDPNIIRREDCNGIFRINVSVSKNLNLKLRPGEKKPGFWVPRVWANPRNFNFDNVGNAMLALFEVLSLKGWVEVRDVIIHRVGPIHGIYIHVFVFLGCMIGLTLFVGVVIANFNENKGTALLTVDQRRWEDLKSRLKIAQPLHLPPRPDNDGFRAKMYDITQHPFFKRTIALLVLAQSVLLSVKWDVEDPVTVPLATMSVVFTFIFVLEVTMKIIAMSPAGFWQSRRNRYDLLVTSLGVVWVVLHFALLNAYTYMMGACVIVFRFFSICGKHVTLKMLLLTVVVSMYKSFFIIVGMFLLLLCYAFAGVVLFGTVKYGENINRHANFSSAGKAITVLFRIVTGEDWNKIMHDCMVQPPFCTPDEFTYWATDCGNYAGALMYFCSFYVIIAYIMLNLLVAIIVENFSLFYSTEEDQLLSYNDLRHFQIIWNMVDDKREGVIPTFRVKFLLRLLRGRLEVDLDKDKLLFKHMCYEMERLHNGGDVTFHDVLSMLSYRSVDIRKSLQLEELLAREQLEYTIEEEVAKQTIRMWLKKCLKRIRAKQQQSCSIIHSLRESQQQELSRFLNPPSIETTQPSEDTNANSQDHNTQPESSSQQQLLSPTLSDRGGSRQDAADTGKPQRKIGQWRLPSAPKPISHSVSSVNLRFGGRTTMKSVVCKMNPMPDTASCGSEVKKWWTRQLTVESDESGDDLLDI

## COc1ccccc1CNC1C2CCN(CC2)C1C(c1ccccc1)c1ccccc1 (centres unmarked) [CP96345, 2-(Diphenylmethyl)-N-(2-methoxybenzyl)quinuclidin-3-amine]
[1]; M3R-NALCN HEK293T cells
  compound concentration which decreases half of a NALCN current (rank order): next highest inhibitory effects
  inhibitory effect on a CCh-induced NALCN current: inhibit a CCh-induced NALCN current in a similar fashion

## COc1ccccc1CN[C@H]1CCCN[C@H]1c1ccccc1 [CP99994, (2S,3S)-N-[(2-methoxyphenyl)methyl]-2-phenylpiperidin-3-amine]
[1]; M3R-NALCN HEK293T cells
  inhibitory effect on a CCh-induced NALCN current: insignificant inhibitory effect

## Ic1ccccc1CNC1C2CCN(CC2)C1C(c1ccccc1)c1ccccc1 (centres unmarked) [L703606, 2-(Diphenylmethyl)-N-(2-iodobenzyl)quinuclidin-3-amine]
[2]; 10 μM of L703606
  spontaneous activity voltage: completely inhibited
[2]; [4]
  background current: decreased
  inward current induced by NT: not induced
[2]; spontaneous activity stopped by 0.5 μM TTX and 30 μM ZD7288, 10 μM of L703606
  membrane potential: induced hyperpolarization of membrane potential
[1]; HEK-293T, cells that co-express M3R-NALCN, holding potential −80 mV, 50 μM of L703606
  inhibition at 50 µM: ≥ 90%
[1]; M3R-NALCN HEK293T cells
  CCh-induced inward current in the presence of PP1, after treatment with L703606: returning to the background current again immediately
  compound concentration which decreases half of a NALCN current (rank order): highest inhibitory effect
  inhibitory effect on a CCh-induced NALCN current: inhibit a CCh-induced NALCN current in a similar fashion
  activation of NALCN by CCh in the presence of the compound: not possible to observe activation of NALCN
[1]; voltage from −80 mV to +10 mV
  CCh-induced NALCN current where voltage is changed: decreased to a control level

## COc1ccc(C(C)(C)C)cc1CN[C@H]1C2CCN(CC2)[C@H]1C(c1ccccc1)c1ccccc1 [Maropitant, (2S,3S)-2-(Diphenylmethyl)-N-[2-methoxy-5-(2-methyl-2-propanyl)benzyl]quinuclidin-3-amine]
[1]; M3R-NALCN HEK293T cells
  compound concentration which decreases half of a NALCN current (rank order): next highest inhibitory effects
  inhibitory effect on a CCh-induced NALCN current: inhibit a CCh-induced NALCN current in a similar fashion

## Cc1ccc(-c2nn(C(C)(C)C)c3ncnc(N)c23)cc1 [PP1]
[2]; [5]
  background current: little effect on the background current
  inward current induced by NT stimulus: remarkably decreased
[1]; M3R-NALCN HEK293T cells
  activation of NALCN by CCh in the presence of the compound: strong inward current induced by activation of NALCN
[1]; cells that co-express M3R-NALCN, treatment with PP1
  inhibition of the CCh-induced inward current: did not greatly inhibit

## COc1ccc(CCCOC(Cn2ccnc2)c2ccc(OC)cc2)cc1 (centres unmarked) [SKF96365]
[3]
  CCh-induced inward current (TRPC current activated by M3R): not created at all
